Consider 28 compounds from patent US4309439A, “Substituted-acetic acid ester” (Sumitomo Chemical Company, Limited, priority 1975, dated 1982).

Common to all, as to type: in vivo
Series [1] relates to Carmine mite female adults (Tetranychus cinnabarinus). Briefly: damage of kidney beans by carmine mites (Example 20). The conditions noted are these: emulsifiable concentrate of Preparation Example 1 diluted 500 times; 10 cc/pot; after 10 days. The method, then:
To 20 parts of each of the present compounds (1), (2), (3), (4), (5), (8), (10), (11), (14), (18), (19), (21), (23), (28), (30) and (33) are added 20 parts of Sorpol SM-200 (the same as above) and 60 parts of xylene. The mixtures are each thoroughly mixed to make a solution. Thus emulsifiable concentrate of each compound is obtained.
Carmine mite female adults (Tetranychus cinnabarinus) were made parasitic on the leaves of potted kidney beans (2-leaf stage) which had elapsed 9 days after sowing, in a proportion of 10-15/leaf. […] Among the emulsifiable concentrates formulated according to Preparation Example 1, those containing the present compounds (1), (4), (14), (19), (23), (30) and (33) were each diluted 500 times with water. At this time, each test solution thus prepared was sprayed in a proportion of 10 cc/pot by means of a turn table. After 10 days, damage of the kidney beans by the insects was checked.

Series [2] deals with smaller brown planthoppers (Laodelphax striatellus). Briefly: LC50 against smaller brown planthoppers on sprayed rice plants (Experimental Example 2). To be noted: 24 h. The method, then: The following compounds as a control are also treated in the same manner as described above.
The emulsifiable concentrates thus formulated were diluted with water to a required concentration. Each test solution thus prepared was individually sprayed on the rice plants in a pot which had elapsed 25 days after sowing, in a proportion of 10 ml/pot. Thereafter, each pot was covered with a cylindrical wire net and 15 smaller brown planthoppers (Laodelphax striatellus) were liberated in the pot. After one day, the dead and alive were observed and the value of LC50 of every concentrate was obtained from the mortality.
The compounds of the present invention are expressed by the foregoing compound number.

Series [3] has as its system armyworms and cutworms, cabbage worm and diamond-back moth. Kind of series: green-house test on chinese cabbages with armyworms and cutworms, cabbage worm and diamond-back moth (Example 21). To be noted: 20% solution in cellosolve; active ingredient 50 g/10 are. The method, then:
A green-house (3 m in height) was divided into plots having an area of 30 m^2 and chinese cabbages were grown up therein. Thereafter, armyworms and cutworms, cabbage worm and diamond-back moth were artificially made parasitic on the cabbages. The present compounds (1), (3) and (4) were each dissolved in cellosolve to make a 20% solution. Each test solution thus prepared was sprayed under pressure on the cabbages so that the amount of the active ingredient becomes 50 g/10 are.

Series [4] deals with house-fly adults (Musca domestica). Briefly: knock-down of house-fly adults by 0.1% oil spray in glass chamber (Experimental Example 3). The conditions noted are these: 0.7 ml, (70 cm)^3 glass chamber. The method, then:
Each of the following present compounds is formulated into a 0.1% oil spray using deodorized kerosene. The following compounds as a control are also likewise treated.
About 50 house-fly adults (Musca domestica) are liberated in a (70 cm)^3 glass chamber. Thereafter, 0.7 ml of each oil spray is sprayed under a pressure of 1.5 kg/cm^2 and the knock-down of the insects with the lapse of time is observed. This test is repeated several times with each oil spray to obtain the values of KT50 (time required for 50% knock-down) as shown in the following table. The present compounds are indicated by the foregoing compound number.

Series [5] relates to green rice leafhopper adults (Nephotettix cincticeps). Briefly: kill of green rice leafhopper adults by dusts on rice plants (Example 18). The conditions noted are these: dust of Preparation Example 6 (with piperonyl-butoxide), 3 kg/10 are; after one day; 1440 min. On the procedure:
One part of each of the present compounds (2), (4), (5), (7), (12), (17), (20), (21), (22), (25), (26), and (35) and 5 parts of piperonyl-butoxide are dissolved in 20 parts of acetone, and then 94 parts of 300 mesh talc are added thereto. After thoroughly mixing in a mortar while stirring, acetone is removed by evaporation. Thus dust of each compound is obtained.
Among the dusts formulated according to Preparation Example 6, those containing the present compounds (2), (7), (12), and (25) were each dusted, using Belljar duster, on the rice plants in a 1/50,000 Wagner pot which had elapsed 45 days after sowing, in a proportion of 3 kg/10 are. After covering the pot with wire net, about 30 green rice leafhopper adults (Nephotettix cincticeps) were liberated therein. After one day, more than 70% of the test insects were killed.

The mark [6] stands for this setting: rice plants sprayed 10 ml/pot, after one day, read-out: LC50.

Converted amounts (≈) assume the structure as drawn. Where two headings read alike, the source gives them in different places. Bounds are passed on as bounds.

One may read the LC50 as the concentration that kills 50% of the test population. As for `C#CCC=C(C)C(C#C)OC(=O)C(c1ccc2c(c1)OCO2)C(C)C` (stereo not drawn) [Compound 4, 4-Methylocta-4-ene-1,7-diyne-3-yl α-isopropyl-3,4-methylenedioxyphenyl-acetate], the “increase in damage of the kidney beans” value in series [1] is given as “an increase in the damage was not observed”. In series [2] (setting [6]), the LC50 amounted to 28 µg/mL (≈ 82.7 µM). Further, the “spread of damage by the insect” value in series [3] is reported as “no spread of damage by the insect was observed”. Further, in series [4], the “KT50 (time required for 50% knock-down)” value is 136 s.
With `C#CCC=C(C)C(C#C)OC(=O)C(c1csc(C)c1)C(C)C` (centres unmarked) [Compound 7, 4-Methylocta-4-ene-1,7-diyne-3-yl 2-(5-methyl-3-thienyl)-isovalerate], the test insects killed entry in series [5] is listed as “more than 70%”. Further, the “KT50 (time required for 50% knock-down)” value in series [4] came to 175 s.
As to `C#CCc1ccc(C(C#C)OC(=O)C(c2ccc(OC)cc2)C(C)C)o1` (centres unmarked) [reference compound], the “KT50 (time required for 50% knock-down)” value in series [4] amounted to 183 s.
Same read-out and setting: the result for `C#CCCC=C(C)C(C#C)OC(=O)C(c1ccc(Br)cc1)C(C)C` (stereo not drawn) [Compound 11, 4-Methylnona-4-ene-1,8-diyne-3-yl α-isopropyl-4-bromophenylacetate] reads 147 s.
With `C#CCC=C(C)C(C#C)OC(=O)C(c1coc(C)c1)C(C)C` (centres unmarked) [Compound 6, 4-Methylocta-4-ene-1,7-diyne-3-yl 2-(5-methyl-3-furyl)-isovalerate], in series [2] (setting [6]), the LC50 amounted to 32 µg/mL (≈ 107 µM).
Turning to `C#CCCC=C(C)C(C#C)OC(=O)C(CC)c1ccc(C#N)cc1` (stereo not drawn) [Compound 23, 4-Methylnona-4-ene-1,8-diyne-3-yl α-ethyl-4-cyanophenylacetate], in series [1], the “increase in damage of the kidney beans” value is recorded as “an increase in the damage was not observed”. Also, the LC50 in series [2] (setting [6]) is 50 µg/mL (≈ 157 µM). In series [4], the “KT50 (time required for 50% knock-down)” value amounted to 140 s.
For `C#CCC=C(C)C(C#C)OC(=O)C(c1cc2c(s1)CCC2)C(C)C` (centres unmarked) [Compound 30, 4-Methylocta-4-ene-1,7-diyne-3-yl 2-(4,5-tri-methylene-thienyl)-isovalerate], the “increase in damage of the kidney beans” value in series [1] was “an increase in the damage was not observed”. For the same compound, the “KT50 (time required for 50% knock-down)” value in series [4] turned out to be 158 s.
Consider `COc1ccc(C(C(=O)OC(C#N)c2cccc(Oc3ccccc3)c2)C(C)C)cc1` (centres unmarked) [drawing 50, reference compound], for which, in series [4], the “KT50 (time required for 50% knock-down)” value worked out at 490 s.
Same read-out and setting: the result for `C=CCC1=C(C)C(OC(=O)C2C(C=C(C)C)C2(C)C)CC1=O` (centres unmarked) [Allethrin, reference compound] reads 504 s.
For the compound `C#CCC(C(=O)OC(C#C)C(=CCCC=C)CC)c1ccc(CC)cc1` (stereo not drawn) [Compound 25, 4-Ethylnona-4,8-diene-1-yne-3-yl α-propargyl-4-ethylphenylacetate], in series [5], the test insects killed entry is listed as “more than 70%”.
With `CC(C)C(C(=O)OCc1coc(Cc2ccccc2)c1)c1ccc(Cl)cc1` (centres unmarked) [reference compound], the “KT50 (time required for 50% knock-down)” value in series [4] was found to be 510 s.
Same read-out and setting: the result for `C#CCC=C(C)C(C#C)OC(=O)C(c1ccc2c(c1)CCCC2)C(C)C` (stereo not drawn) [Compound 5, 4-Methylocta-4-ene-1,7-diyne-3-yl α-isopropyl-3,4-tetramethylenephenyl-acetate] reads 140 s.
In series [2], `CNC(=O)Oc1ccccc1Cl` [Hopcide, reference compound] showed an LC50 of 75 µg/mL (≈ 404 µM).
Take `C#CCC=C(C)C(C#C)OC(=O)C(c1ccc2c(c1)CCC2)C(C)C` (centres unmarked) [Compound 33, 4-Methylocta-4-ene-1,7-diyne-3-yl 2-(5-indanyl)-isovalerate]: the “increase in damage of the kidney beans” value in series [1] is listed as “an increase in the damage was not observed”.
Consider `C#CCC=C(C)C(C#C)OC(=O)C(c1ccc(OC)c(OC)c1)C(C)(C)C` (stereo not drawn) [Compound 19, 4-Methylocta-4-ene-1,7-diyne-3-yl α-t-butyl-3,4-dimethoxyphenyl-acetate], for which the “increase in damage of the kidney beans” value in series [1] is given as “an increase in the damage was not observed”. Moreover, in series [2] (setting [6]), the LC50 amounted to 43 µg/mL (≈ 117 µM).
Take `C#CC(OC(=O)C(c1ccc(OC)cc1)C(C)C)C(C)=CCCC=C` (stereo not drawn) [Compound 14, 4-Methylnona-4,8-diene-1-yne-3-yl α-isopropyl-4-methoxyphenylacetate]: the “increase in damage of the kidney beans” value in series [1] was “an increase in the damage was not observed”. Moreover, in series [2] (setting [6]), the 50% lethal concentration (LC50) was 46 µg/mL (≈ 135 µM). For the same compound, the “KT50 (time required for 50% knock-down)” value in series [4] was 174 s.
In the case of `COc1ccc(C(C(=O)OC(C#N)c2cccc(Oc3ccccc3)c2)C(C)C)cc1` (centres unmarked) [drawing 45, reference compound], the LC50 in series [2] (setting [6]) stood at 73 µg/mL (≈ 176 µM).
As for `C#CCC=C(C)C(C#C)OC(=O)C(c1ccc(Cl)c(Cl)c1)C(C)C` (stereo not drawn) [Compound 2, 4-Methylocta-4-ene-1,7-diyne-3-yl α-isopropyl-3,4-dichlorophenyl-acetate], the test insects killed entry in series [5] was “more than 70%”. The LC50 in series [2] (setting [6]) was determined as 31 µg/mL (≈ 85.3 µM).
`C#CC(C=Cc1ccccc1)OC(=O)C(c1ccc(SC)cc1)C(C)C` (stereo not drawn) [Compound 27, 5-Phenylpenta-4-ene-1-yne-3-yl α-isopropyl-4-methylthiophenyl-acetate]: the LC50 in series [2] (setting [6]) came to 66 µg/mL (≈ 181 µM).
Turning to `C#CCC=C(C)C(C#C)OC(=O)C(c1ccc(Cl)cc1)C(C)C` (stereo not drawn) [Compound 1, 4-Methylocta-4-ene-1,7-diyne-3-yl α-isopropyl-4-chlorophenylacetate], in series [1], the “increase in damage of the kidney beans” value is “an increase in the damage was not observed”. Besides, the LC50 in series [2] (setting [6]) was found to be 23 µg/mL (≈ 69.9 µM). The “spread of damage by the insect” value in series [3] was “no spread of damage by the insect was observed”. Besides, the “KT50 (time required for 50% knock-down)” value in series [4] was found to be 128 s.
In the case of `COc1ccc(C(C(=O)OCc2cccc(Oc3ccccc3)c2)C(C)C)cc1` (centres unmarked) [reference compound], in series [2] (setting [6]), the LC50 amounted to 87 µg/mL (≈ 223 µM).
In the case of `C#CCC=C(C)C(C#C)OC(=O)C(c1cc2c(s1)CCCC2)C(C)C` (centres unmarked) [Compound 29], in series [2] (setting [6]), the LC50 worked out at 48 µg/mL (≈ 135 µM).
For `C#CCC=C(C)C(C#C)OC(=O)C(c1cc2ccccc2o1)C(C)C` (centres unmarked) [Compound 34, 4-Methylocta-4-ene-1,7-diyne-3-yl 2-(2-benzo-furyl)-isovalerate], the “KT50 (time required for 50% knock-down)” value in series [4] stood at 170 s.
Turning to `CC(C)=CC1C(C(=O)OCc2coc(Cc3ccccc3)c2)C1(C)C` (centres unmarked) [Resmethrin, reference compound], the “KT50 (time required for 50% knock-down)” value in series [4] is > 600 s.
Turning to `C#CCC=C(CC)C(C#C)OC(=O)C(c1ccc(Cl)cc1)C(C)C` (stereo not drawn) [Compound 10, 4-Ethylocta-4-ene-1,7-diyne-3-yl α-isopropyl-4-chlorophenylacetate], in series [2] (setting [6]), the 50% lethal concentration (LC50) is 34 µg/mL (≈ 99.2 µM).
On to `C#CCC=C(C)C(C#C)OC(=O)C(c1ccc(OC)cc1)C(C)C` (stereo not drawn) [Compound 3, 4-Methylocta-4-ene-1,7-diyne-3-yl α-isopropyl-4-methoxyphenylacetate], for which, in series [2] (setting [6]), the 50% lethal concentration (LC50) worked out at 35 µg/mL (≈ 108 µM). The “spread of damage by the insect” value in series [3] is listed as “no spread of damage by the insect was observed”. The “KT50 (time required for 50% knock-down)” value in series [4] was 139 s.
Regarding `C#CCc1ccc(COC(=O)C(c2ccc(Cl)cc2)C(C)C)o1` (centres unmarked) [reference compound], the 50% lethal concentration (LC50) in series [2] (setting [6]) was found to be 68 µg/mL (≈ 206 µM).
As for `C#CC(OC(=O)C(c1ccc(F)cc1)C(C)C)C(C)=CCc1ccccc1` (stereo not drawn) [Compound 12, 6-Phenyl-4-methylhexa-4-ene-1-yne-3-yl α-isopropyl-4-fluoro-phenylacetate], the test insects killed entry in series [5] is “more than 70%”.
